Data: ChEMBL document CHEMBL1255179, “Fatty acid synthase inhibitors of phenolic constituents isolated from Garcinia mangostana” (Bioorg Med Chem Lett, 2010)
pIC50: −log10 of the molar value.

Each molecule was assayed against Fatty acid synthase (Gallus gallus) (UniProt P12276) (assay: Inhibition of FAS at 1000 uM).
Fatty acid synthase (Gallus gallus), sequence (P12276 whole entry, looked up): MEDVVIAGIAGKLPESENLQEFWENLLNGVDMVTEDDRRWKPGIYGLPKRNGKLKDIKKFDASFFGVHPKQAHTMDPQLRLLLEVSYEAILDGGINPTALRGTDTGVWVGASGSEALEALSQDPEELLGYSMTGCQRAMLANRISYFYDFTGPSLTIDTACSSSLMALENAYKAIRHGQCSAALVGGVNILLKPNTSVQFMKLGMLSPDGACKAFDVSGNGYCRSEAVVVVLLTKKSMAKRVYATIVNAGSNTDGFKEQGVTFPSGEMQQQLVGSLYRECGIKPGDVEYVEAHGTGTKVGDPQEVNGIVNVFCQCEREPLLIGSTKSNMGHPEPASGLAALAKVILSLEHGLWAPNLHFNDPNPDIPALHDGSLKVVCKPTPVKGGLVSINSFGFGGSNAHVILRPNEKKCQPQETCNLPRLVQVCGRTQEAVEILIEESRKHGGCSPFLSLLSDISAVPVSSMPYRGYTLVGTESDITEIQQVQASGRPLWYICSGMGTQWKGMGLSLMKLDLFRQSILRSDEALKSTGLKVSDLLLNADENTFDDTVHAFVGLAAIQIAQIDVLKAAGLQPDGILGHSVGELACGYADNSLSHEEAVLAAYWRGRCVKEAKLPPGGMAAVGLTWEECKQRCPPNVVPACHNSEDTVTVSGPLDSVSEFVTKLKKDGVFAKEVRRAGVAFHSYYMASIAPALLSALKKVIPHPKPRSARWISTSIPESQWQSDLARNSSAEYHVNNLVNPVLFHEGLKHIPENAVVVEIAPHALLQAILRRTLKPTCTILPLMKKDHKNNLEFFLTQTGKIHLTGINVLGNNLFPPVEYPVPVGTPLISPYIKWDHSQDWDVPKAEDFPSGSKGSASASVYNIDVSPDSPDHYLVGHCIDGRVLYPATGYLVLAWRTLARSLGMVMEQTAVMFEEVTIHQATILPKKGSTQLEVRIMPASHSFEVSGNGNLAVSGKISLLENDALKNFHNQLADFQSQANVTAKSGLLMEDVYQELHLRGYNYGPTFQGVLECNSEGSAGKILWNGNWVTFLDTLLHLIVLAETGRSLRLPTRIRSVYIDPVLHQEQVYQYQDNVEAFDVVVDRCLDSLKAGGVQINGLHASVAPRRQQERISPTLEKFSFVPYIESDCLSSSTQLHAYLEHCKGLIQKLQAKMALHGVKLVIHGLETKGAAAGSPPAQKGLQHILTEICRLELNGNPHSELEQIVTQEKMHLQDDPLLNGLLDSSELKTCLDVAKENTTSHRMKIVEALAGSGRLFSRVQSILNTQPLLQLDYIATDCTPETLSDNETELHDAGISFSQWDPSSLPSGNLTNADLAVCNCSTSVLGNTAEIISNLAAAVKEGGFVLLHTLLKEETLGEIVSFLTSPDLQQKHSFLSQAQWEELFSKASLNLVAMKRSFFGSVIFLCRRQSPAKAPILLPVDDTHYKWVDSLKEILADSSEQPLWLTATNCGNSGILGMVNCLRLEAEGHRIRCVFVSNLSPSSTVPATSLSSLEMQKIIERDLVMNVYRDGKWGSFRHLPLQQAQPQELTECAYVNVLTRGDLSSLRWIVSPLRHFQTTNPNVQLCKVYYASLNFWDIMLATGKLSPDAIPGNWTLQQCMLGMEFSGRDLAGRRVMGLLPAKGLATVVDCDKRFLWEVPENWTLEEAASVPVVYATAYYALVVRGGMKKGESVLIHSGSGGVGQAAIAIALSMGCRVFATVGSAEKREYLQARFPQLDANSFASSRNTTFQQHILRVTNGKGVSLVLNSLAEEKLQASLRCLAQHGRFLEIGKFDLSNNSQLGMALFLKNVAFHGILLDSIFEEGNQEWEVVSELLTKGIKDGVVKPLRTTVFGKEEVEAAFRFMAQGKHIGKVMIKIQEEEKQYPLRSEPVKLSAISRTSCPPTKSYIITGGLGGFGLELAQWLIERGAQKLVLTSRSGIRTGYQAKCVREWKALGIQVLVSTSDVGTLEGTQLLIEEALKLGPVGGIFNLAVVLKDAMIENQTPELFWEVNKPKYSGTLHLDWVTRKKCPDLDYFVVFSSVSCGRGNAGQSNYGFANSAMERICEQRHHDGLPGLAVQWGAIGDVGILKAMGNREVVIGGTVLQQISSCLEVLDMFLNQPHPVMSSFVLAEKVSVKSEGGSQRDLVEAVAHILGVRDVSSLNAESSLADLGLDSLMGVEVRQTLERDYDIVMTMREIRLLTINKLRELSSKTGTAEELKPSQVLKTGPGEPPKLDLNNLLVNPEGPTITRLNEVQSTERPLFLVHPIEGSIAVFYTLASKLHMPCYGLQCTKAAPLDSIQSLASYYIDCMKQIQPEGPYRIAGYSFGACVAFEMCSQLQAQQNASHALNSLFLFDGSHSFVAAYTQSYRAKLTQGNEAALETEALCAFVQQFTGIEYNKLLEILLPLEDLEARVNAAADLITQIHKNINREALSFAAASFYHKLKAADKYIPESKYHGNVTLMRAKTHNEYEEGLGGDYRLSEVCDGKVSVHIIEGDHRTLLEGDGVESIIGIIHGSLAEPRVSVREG

| Compound | pIC50 |
| --- | --- |
| Oc1cc(O)c2c(c1)O[C@@H](c1ccc(O)c(O)c1)[C@@H](O)C2 [(+)-EPICATECHIN] | < 3.00 |

The molecules below were run against Fatty acid synthase (Gallus gallus) (UniProt P12276) (assay: Inhibition of FAS).

| Compound | pIC50 |
| --- | --- |
| O=C(c1cccc(O)c1)c1cc(O)c(O)c(O)c1 | 4.83 |
| O=C(c1cc(O)cc(O)c1)c1c(O)cc(O)cc1O | 5.07 |
| O=c1c2cc(O)c(O)cc2oc2cc(O)cc(O)c12 | 4.75 |
| CC(C)=CCc1c(O)cc2oc3cc(O)c(O)c(CC=C(C)C)c3c(=O)c2c1O | 5.91 |
| COc1cc2oc3cc(O)c(OC)c(CC=C(C)C)c3c(=O)c2c(O)c1CC=C(C)C | 4.61 |
| O=c1c2cc(O)ccc2oc2cc(O)cc(O)c12 | 4.39 |
| COc1cc(CCCO)cc2cc(-c3ccc4c(c3)OCO4)oc12 [EGONOL] | 4.04 |
| O=C(O[C@@H]1Cc2c(O)cc(O)cc2O[C@@H]1c1cc(O)c(O)c(O)c1)c1cc(O)c(O)c(O)c1 [EPIGALOCATECHIN GALLATE] | 4.28 |
| CC(C)=CCc1c(O)cc2oc3c(CC=C(C)C)c(O)c(O)c(CC=C(C)C)c3c(=O)c2c1O [GARCINONE E] | 5.48 |
| COc1c(O)cc2oc3cc4c(c(O)c3c(=O)c2c1CC=C(C)C)C=CC(C)(C)O4 [MANGOSTANIN] | 4.39 |
| COc1c(O)cc2oc3cc(O)c(CC=C(C)C)c(O)c3c(=O)c2c1CC=C(C)C [MANGOSTIN] | 5.26 |
| C[C@@H]1O[C@@H](O[C@@H]2C(=O)c3c(O)cc(O)cc3O[C@H]2c2cc(O)cc(O)c2)[C@H](O)[C@H](O)[C@H]1O [NEOSMITILBIN] | 4.31 |
